Laboratory results as given in PubChem BioAssay (NCI).
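Following 48 hours of exposure in 96-well plates, responses at five concentrations were used to interpolate endpoints linearly. GI50 is the concentration that inhibits growth by half. TGI denotes the concentration required for complete inhibition of growth.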

How the values were obtained:
Experiment in all cases: NCI anticancer screen, dose series, 48 h
[1] = test system: A549 NSCLC
[2] = test system: IGROV1 ovarian
[3] = test system: M14 melanoma
[4] = test system: UACC-62 melanoma
[5] = test system: NCI-H23 lung
[6] = test system: CCRF-CEM leukemia
[7] = test system: COLO 205 colon
[8] = test system: SK-MEL-2 melanoma
[9] = test system: SF-268 CNS
[10] = test system: MALME-3M melanoma
[11] = test system: K-562 leukemia
[12] = test system: MCF7 breast
[13] = test system: T-47D breast
[14] = test system: ACHN renal
[15] = test system: RPMI-8226 leukemia
[16] = test system: NCI/ADR-RES ovarian
[17] = test system: HOP-62 NSCLC
[18] = test system: HOP-92 NSCLC
[19] = test system: NCI-H460 lung
[20] = test system: SR leukemia
[21] = test system: RXF 393 renal
[22] = test system: SK-MEL-28 melanoma
[23] = test system: HL-60(TB) leukemia
[24] = test system: OVCAR-4 ovarian
[25] = test system: SK-OV-3 ovarian
[26] = test system: SK-MEL-5 melanoma
[27] = test system: CAKI-1 renal
[28] = test system: MDA-MB-435
[29] = test system: U251 CNS
[30] = test system: SW-620 colon
[31] = test system: MOLT-4 leukemia
[32] = test system: OVCAR-5 ovarian
[33] = test system: SNB-75 CNS
[34] = test system: PC-3 prostate
[35] = test system: TK-10 renal
[36] = test system: MDA-MB-231 breast
[37] = test system: HS 578T breast
[38] = test system: SN12C renal
[39] = test system: DU-145 prostate
[40] = test system: OVCAR-3 ovarian
[41] = test system: NCI-H226 lung
[42] = test system: EKVX NSCLC
[43] = test system: UACC-257 melanoma
[44] = test system: KM12 colon
[45] = test system: UO-31 renal
[46] = test system: HCT-116 colon
[47] = test system: LOX IMVI melanoma
[48] = test system: HT29 colon
[49] = test system: HCT-15 colon
[50] = test system: 786-0 renal
[51] = test system: SF-295 CNS
[52] = test system: NCI-H522 lung
[53] = test system: OVCAR-8 ovarian
[54] = test system: SNB-19 CNS
[55] = test system: SF-539 CNS
[56] = test system: HCC-2998 colon

## CCN1C(=O)CS/C1=N/NC(=O)C(O)(c1ccccc1)C1C=CC=CC1 (stereo not given)
[1]
  TGI: > 10 µM
[2]
  TGI: > 10 µM
[3]
  TGI: > 10 µM
[4]
  TGI: > 10 µM
[5]
  TGI: > 10 µM
[6]
  TGI: > 10 µM
[7]
  TGI: > 10 µM
[8]
  TGI: > 10 µM
[9]
  TGI: > 10 µM
[10]
  TGI: > 10 µM
[11]
  TGI: > 10 µM
[12]
  TGI: > 10 µM
[13]
  TGI: > 10 µM
[14]
  TGI: > 10 µM
[15]
  TGI: > 10 µM
[16]
  TGI: > 10 µM
[17]
  TGI: > 10 µM
[18]
  TGI: > 10 µM
[19]
  TGI: > 10 µM
[20]
  TGI: > 10 µM
[21]
  TGI: > 10 µM
[22]
  TGI: > 10 µM
[23]
  TGI: > 10 µM
[24]
  TGI: > 10 µM
[25]
  TGI: > 10 µM
[26]
  TGI: > 10 µM
[27]
  TGI: > 10 µM
[28]
  TGI: > 10 µM
[29]
  TGI: > 10 µM
[30]
  TGI: > 10 µM
[31]
  TGI: > 10 µM
[32]
  TGI: > 10 µM
[33]
  TGI: > 10 µM

## Fc1cc(-c2nnc3n2N=C(c2ccc(Cl)cc2Cl)CS3)c(Cl)cc1Cl
[34]
  GI50: 39.2 µM
  TGI: > 100 µM
[1]
  GI50: 58 µM
  TGI: > 100 µM
[35]
  GI50: 77.3 µM
  TGI: > 100 µM
[36]
  GI50: 33.7 µM
  TGI: > 100 µM
[37]
  GI50: 33.6 µM
  TGI: > 100 µM
[2]
  GI50: 50.4 µM
  TGI: > 100 µM
[3]
  GI50: 37.5 µM
  TGI: > 100 µM
[38]
  GI50: 56.4 µM
  TGI: > 100 µM
[4]
  GI50: 24.9 µM
  TGI: 99.6 µM
[39]
  GI50: 49.5 µM
  TGI: > 100 µM
[5]
  GI50: 82.5 µM
  TGI: > 100 µM
[40]
  GI50: 22.8 µM
  TGI: 88.1 µM
[6]
  GI50: 27.6 µM
  TGI: > 100 µM
[7]
  GI50: 32.9 µM
  TGI: > 100 µM
[41]
  GI50: 36.5 µM
  TGI: > 100 µM
[42]
  GI50: 58.5 µM
  TGI: > 100 µM
[43]
  GI50: 86 µM
  TGI: > 100 µM
[44]
  GI50: 41.9 µM
  TGI: > 100 µM
[45]
  GI50: 60.2 µM
  TGI: > 100 µM
[8]
  GI50: > 100 µM
  TGI: > 100 µM
[46]
  GI50: 25.4 µM
  TGI: 68.7 µM
[9]
  GI50: 36.6 µM
  TGI: > 100 µM
[47]
  GI50: 34.3 µM
  TGI: > 100 µM
[10]
  GI50: 26.6 µM
  TGI: 94.4 µM
[11]
  GI50: 47.5 µM
  TGI: > 100 µM
[12]
  GI50: 31.3 µM
  TGI: > 100 µM
[48]
  GI50: 40.5 µM
  TGI: > 100 µM
[13]
  GI50: 11.7 µM
  TGI: 48.5 µM
[14]
  GI50: 66.6 µM
  TGI: > 100 µM
[15]
  GI50: 25.3 µM
  TGI: 95.7 µM
[16]
  GI50: 30.8 µM
  TGI: 99.5 µM
[17]
  GI50: 44.2 µM
  TGI: > 100 µM
[18]
  GI50: 54.2 µM
  TGI: > 100 µM
[19]
  GI50: 37.3 µM
  TGI: > 100 µM
[20]
  GI50: > 100 µM
  TGI: > 100 µM
[49]
  GI50: 38.3 µM
  TGI: > 100 µM
[50]
  GI50: 47.1 µM
  TGI: > 100 µM
[21]
  GI50: 51 µM
  TGI: > 100 µM
[22]
  GI50: 40.2 µM
  TGI: > 100 µM
[23]
  GI50: > 100 µM
  TGI: > 100 µM
[24]
  GI50: > 100 µM
  TGI: > 100 µM
[51]
  GI50: 36.4 µM
  TGI: > 100 µM
[25]
  GI50: 48 µM
  TGI: > 100 µM
[26]
  GI50: 26.1 µM
  TGI: 65.1 µM
[27]
  GI50: 35.9 µM
  TGI: > 100 µM
[52]
  GI50: 50.8 µM
  TGI: > 100 µM
[53]
  GI50: 57.3 µM
  TGI: > 100 µM
[28]
  GI50: 24.5 µM
  TGI: 75.9 µM
[29]
  GI50: 38.2 µM
  TGI: > 100 µM
[30]
  GI50: 36.8 µM
  TGI: > 100 µM
[31]
  GI50: 75.1 µM
  TGI: > 100 µM
[54]
  GI50: 25.4 µM
  TGI: > 100 µM
[55]
  GI50: 39.2 µM
  TGI: > 100 µM
[56]
  GI50: 35 µM
  TGI: > 100 µM
[32]
  GI50: > 100 µM
  TGI: > 100 µM
[33]
  GI50: > 100 µM
  TGI: > 100 µM

## C/C(=N\n1c(N)c(C#N)c(-c2ccc(Cl)cc2)c(C#N)c1=O)c1ccncc1
[34]
  GI50: 2.41 µM
  TGI: 16.8 µM
[1]
  GI50: 7.58 µM
  TGI: 65.4 µM
[35]
  GI50: 6.04 µM
  TGI: 38.9 µM
[36]
  GI50: 12.6 µM
  TGI: 44.2 µM
[37]
  GI50: 6.4 µM
  TGI: 75.8 µM
[2]
  GI50: 5.02 µM
  TGI: > 100 µM
[3]
  GI50: > 100 µM
  TGI: > 100 µM
[38]
  GI50: 9.88 µM
  TGI: 41.1 µM
[4]
  GI50: 36.4 µM
  TGI: > 100 µM
[39]
  GI50: 11.1 µM
  TGI: 44.7 µM
[5]
  GI50: 11 µM
  TGI: 45.7 µM
[40]
  GI50: 3.7 µM
  TGI: 21.5 µM
[6]
  GI50: > 100 µM
  TGI: > 100 µM
[7]
  GI50: > 100 µM
  TGI: > 100 µM
[41]
  GI50: 18.5 µM
  TGI: 54.5 µM
[42]
  GI50: 6.13 µM
  TGI: > 100 µM
[43]
  GI50: 13.5 µM
  TGI: 95.3 µM
[45]
  GI50: 7.33 µM
  TGI: > 100 µM
[8]
  GI50: 27.8 µM
  TGI: > 100 µM
[46]
  GI50: 11.9 µM
  TGI: 31.7 µM
[9]
  GI50: 9.83 µM
  TGI: 61.4 µM
[47]
  GI50: 35.4 µM
  TGI: > 100 µM
[10]
  GI50: 7.54 µM
  TGI: > 100 µM
[11]
  GI50: > 100 µM
  TGI: > 100 µM
[12]
  GI50: 5.7 µM
  TGI: 93.9 µM
[48]
  GI50: > 100 µM
  TGI: > 100 µM
[13]
  GI50: 7.81 µM
  TGI: 85.3 µM
[14]
  GI50: 20.9 µM
  TGI: 49.5 µM
[15]
  GI50: 7.96 µM
  TGI: 69.7 µM
[16]
  GI50: 5.28 µM
  TGI: 31.3 µM
[17]
  GI50: 16.9 µM
  TGI: 48.8 µM
[18]
  GI50: 0.61 µM
  TGI: 4.17 µM
[19]
  GI50: 22.4 µM
  TGI: 82.5 µM
[20]
  GI50: 3.3 µM
  TGI: > 100 µM
[49]
  GI50: 58.2 µM
  TGI: > 100 µM
[50]
  GI50: 6.95 µM
  TGI: 34 µM
[22]
  GI50: 56.8 µM
  TGI: > 100 µM
[24]
  GI50: 11.1 µM
  TGI: 43.6 µM
[51]
  GI50: 4.65 µM
  TGI: 86 µM
[25]
  GI50: 10.1 µM
  TGI: 64.6 µM
[26]
  GI50: 21.8 µM
  TGI: > 100 µM
[27]
  GI50: 16.7 µM
  TGI: > 100 µM
[53]
  GI50: 2.95 µM
  TGI: 12.4 µM
[29]
  GI50: 19.6 µM
  TGI: 44.6 µM
[30]
  GI50: 31.5 µM
  TGI: > 100 µM
[31]
  GI50: > 100 µM
  TGI: > 100 µM
[54]
  GI50: 10.6 µM
  TGI: > 100 µM
[56]
  GI50: > 100 µM
  TGI: > 100 µM
[32]
  GI50: 60.4 µM
  TGI: > 100 µM
[33]
  GI50: 6.11 µM
  TGI: 26.6 µM
